# According to US12600997B2, “Fermentative production of sialylated saccharides” (priority 2018, dated 2026):
# Legend:
# [1] = tested on: SiaT9 (α-2,3-sialyltransferase); assay: In vitro sialyltransferase activity assay with acceptor substrates, product detected by thin layer chromatography; assay type: biochemical, Vibrio sp. JT-FAJ-16; design: key to Formation of sialylated reaction product, SiaT9: +: A sialylated reaction product was detectable.; −: A sialylated reaction product was not detectable; settings: TLC; for Formation of sialylated reaction product, SiaT9: E. coli protein extract, 10 mM CMP-Neu5Ac, 5 to 20 mM acceptor substrate, 16 hours; for Sialylation of acceptor substrate by SiaT9: in vitro assay, summary of Table 3
# Description: (§1) The E. coli strains harboring the plasmids for siaT9 (α-2,3-sialyltransferase) and siaT18 (α-2,6-sialyltransferase) expression were grown at 30° C. in 100 ml shake flasks filled with 20 ml of 2YT medium supplemented with ampicillin 100 μg ml^−1. When the cultures reached an OD600 of 0.1 to 0.3, gene expression was induced by addition of 0.3 mM IPTG and the incubation was continued for 12 to 16 hours. Cells were harvested by centrifugation and mechanically disrupted in a defined volume of 50 mM Tris-HCl pH7.5 using glass beads. The protein extract was kept on ice until the assay started. The in vitro assay was carried out in a total volume of 25 μl including 50 mM Tris-HCl PH7.5, 5 mM MgCl2, 10 mM CMP-Neu5Ac and 5 to 20 mM of the appropriate acceptor substrates. The assay started with the addition of 3 μl protein extract and continued for 16 hours. Formation of sialylated oligosaccharides resulting from the activity of the sialyltransferases was determined by thin layer chromatography.
# (§2) Therefore, samples were applied on Silica Gel 60 F254 (Merck KGaA, Darmstadt, Germany)-plates. A mixture of butanol:acetone:acetic acid:H2O (35/35/7/23 (v/v/v/v)) was used as mobile phase. For detection of the separated substances, the TLC plate was soaked with thymol reagent (0.5 g thymol solved in 95 ml ethanol, 5 ml sulfuric acid added) and heated. Sialylated reaction products run slower than their acceptor substrates.
# (§3) Table 3: In vitro analyses determining sialyltransferase activities of two exemplary sialyltransferases depending on the supplied acceptor substrate. The formation of sialylated saccharides was determined by thin layer chromatography. (+) A sialylated reaction product was detectable. (−) A sialylated reaction product was not detectable.
# [2] = tested on: SiaT18 (α-2,6-sialyltransferase); assay: as above; assay type: biochemical, Photobacterium leiognathi JT-SHIZ-119; design: key to Formation of sialylated reaction product, SiaT18: +: A sialylated reaction product was detectable.; −: A sialylated reaction product was not detectable; settings: TLC; for Formation of sialylated reaction product, SiaT18: E. coli protein extract, 10 mM CMP-Neu5Ac, 5 to 20 mM acceptor substrate, 16 hours; for Sialylation of acceptor substrate by SiaT18: in vitro assay, summary of Table 3
# Description: as §1, §2, §3
SMILES,"Formation of sialylated reaction product, SiaT9 [1]",Sialylation of acceptor substrate by SiaT9 [1],"Formation of sialylated reaction product, SiaT18 [2]",Sialylation of acceptor substrate by SiaT18 [2]
O=C[C@H](O)[C@@H](O)[C@@H](O)[C@H](O)CO [Galactose],+,capable to sialylate,+,capable to sialylate
CC(=O)N[C@H]1[C@H](O[C@H]2[C@@H](O)[C@@H](CO)O[C@@H](O[C@H]3[C@H](O)[C@@H](O)C(O)O[C@@H]3CO)[C@@H]2O)O[C@H](CO)[C@@H](O)[C@@H]1O[C@@H]1O[C@H](CO)[C@H](O)[C@H](O)[C@H]1O (stereo partly drawn) [Lacto-N-tetraose],+,,+,
OC[C@H]1O[C@@H](O[C@H]2[C@H](O)[C@@H](O)C(O)O[C@@H]2CO)[C@H](O)[C@@H](O)[C@H]1O (stereo partly drawn) [Lactose],+,,+,
OC[C@H]1O[C@@](CO)(O[C@H]2O[C@H](CO)[C@@H](O)[C@H](O)[C@H]2O)[C@@H](O)[C@@H]1O [Sucrose],−,No sialylated oligosaccharide was detectable,−,No sialylated oligosaccharide was detectable
